# “And” between values parts separate entries of the source, which are not always exact repeats. Equal entries are not always repeated. Inconclusive results and toxic doses are left out.
# Test system: P388 leukemia ip, CD2F1 mice, survival T/C
# Assay: NCI In Vivo Anticancer Drug Screen. Data for tumor model P388 Leukemia (intraperitoneal) in CD2F1 (CDF1) mice
# Settings: endpoint: median survival time, higher = longer survival
# Method in brief: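 Mice carrying the transplanted tumor received test compound or vehicle. Survival was recorded in each group, and the value is the treated-group measurement divided by that of the vehicle-treated control group.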
# [1] = dose: 100.0 mg/kg/injection, schedule: Q01DX001 (ip), vehicle: saline with Tween-80
# [2] = dose: 200.0 mg/kg/injection, schedule: Q01DX001 (ip), vehicle: saline with Tween-80
# [3] = dose: 400.0 mg/kg/injection, schedule: Q01DX001 (ip), vehicle: saline with Tween-80
# [4] = dose: 60.0 mg/kg/injection, schedule: Q01DX005 (ip), vehicle: saline with Tween-80
# [5] = dose: 120.0 mg/kg/injection, schedule: Q01DX005 (ip), vehicle: saline with Tween-80
# [6] = dose: 240.0 mg/kg/injection, schedule: Q01DX005 (ip), vehicle: saline with Tween-80
# [7] = dose: 50.0 mg/kg/injection, schedule: Q01DX009 (ip), vehicle: Klucel (hydroxypropylcellulose) (HPC)
# [8] = dose: 100.0 mg/kg/injection, schedule: Q01DX009 (ip), vehicle: Klucel (hydroxypropylcellulose) (HPC)
# [9] = dose: 50.0 mg/kg/injection, schedule: Q01DX005 (ip), vehicle: Klucel (hydroxypropylcellulose) (HPC)
# [10] = dose: 100.0 mg/kg/injection, schedule: Q01DX005 (ip), vehicle: Klucel (hydroxypropylcellulose) (HPC)
# [11] = dose: 200.0 mg/kg/injection, schedule: Q01DX005 (ip), vehicle: Klucel (hydroxypropylcellulose) (HPC)
# [12] = dose: 50.0 mg/kg/injection, schedule: Q01DX005 (ip), vehicle: saline with Tween-80
# [13] = dose: 100.0 mg/kg/injection, schedule: Q01DX005 (ip), vehicle: saline with Tween-80
# [14] = dose: 200.0 mg/kg/injection, schedule: Q01DX005 (ip), vehicle: saline with Tween-80
# [15] = dose: 25.0 mg/kg/injection, schedule: Q01DX009 (ip), vehicle: saline with Tween-80
# [16] = dose: 50.0 mg/kg/injection, schedule: Q01DX009 (ip), vehicle: saline with Tween-80
# [17] = dose: 100.0 mg/kg/injection, schedule: Q01DX009 (ip), vehicle: saline with Tween-80
# [18] = dose: 200.0 mg/kg/injection, schedule: Q01DX009 (ip), vehicle: Klucel (hydroxypropylcellulose) (HPC)
compound,measurement,setting,value
CC(C)N(c1ccc(O)c2ccccc12)C(C)C,T/C,[1],96 % of control
same,T/C,[2],100 % of control
same,T/C,[3],95 % of control
CN(C)c1ccc2c(c1)c1cc(N(C)C)ccc1n2Cc1ccccc1,T/C,[4],102 % of control
same,T/C,[5],94 % of control
same,T/C,[6],98 % of control
Nc1snnc1C(=S)NC=S,T/C,"dose: 100.0 mg/kg/injection, schedule: Q01DX001 (ip), vehicle: saline",102 % of control
same,T/C,"dose: 200.0 mg/kg/injection, schedule: Q01DX001 (ip), vehicle: saline",105 % of control
same,T/C,"dose: 400.0 mg/kg/injection, schedule: Q01DX001 (ip), vehicle: saline",100 % of control
CC1(c2ccccc2)OC(=O)C=CC1=O (centres undefined),T/C,[4],110 % of control
same,T/C,[5],104 % of control
same,T/C,[6],108 % of control
O=[N+]([O-])c1ccc(Sc2nc3ccccc3[nH]2)nc1,T/C,"dose: 50.0 mg/kg/injection, schedule: Q01DX009 (ip), vehicle: suspension in saline",100 % of control
same,T/C,"dose: 100.0 mg/kg/injection, schedule: Q01DX009 (ip), vehicle: suspension in saline",100 % of control
same,T/C,"dose: 200.0 mg/kg/injection, schedule: Q01DX009 (ip), vehicle: suspension in saline",99 % of control
O=C1C2=Cc3ccccc3CN2Cc2ccccc21,T/C,"dose: 18.75 mg/kg/injection, schedule: Q01DX009 (ip), vehicle: saline with Tween-80",111 % of control
same,T/C,"dose: 37.5 mg/kg/injection, schedule: Q01DX009 (ip), vehicle: saline with Tween-80",90 % of control
c1ccc2c(c1)SP(P1Sc3ccccc3S1)S2,T/C,[7],100 % of control
same,T/C,[8],107 % of control
C[C@@]12O[C@]1(C)[C@@H]1[C@H]3O[C@H]3[C@@H]2N(C(=O)OCC(Cl)(Cl)Cl)N1C(=O)OCC(Cl)(Cl)Cl,T/C,[9],100 % of control
same,T/C,[10],105 % of control
same,T/C,[11],100 % of control
CCOC(=O)c1cccc2c([N+](=O)[O-])c([N+](=O)[O-])cc(C(=O)OCC)c12,T/C,[1],99 % of control
same,T/C,[2],102 % of control
same,T/C,[3],99 % of control
C[N+](C)(C)c1ncnc2c1ncn2C1CC(O)C(CO)O1 (centres undefined),T/C,"dose: 50.0 mg/kg/injection, schedule: Q01DX005 (ip), vehicle: saline",95 % of control
same,T/C,"dose: 100.0 mg/kg/injection, schedule: Q01DX005 (ip), vehicle: saline",98 % of control
same,T/C,"dose: 200.0 mg/kg/injection, schedule: Q01DX005 (ip), vehicle: saline",101 % of control
CC(CCC(=O)O)(c1ccc(OC(=O)Nc2ccc([N+](=O)[O-])cc2)cc1)c1ccc(OC(=O)Nc2ccc([N+](=O)[O-])cc2)cc1,T/C,[12],111 % of control
same,T/C,[13],96 % of control
same,T/C,[14],93 % of control
CCC(CC)C1NC(C(CC)CC)N2C(C(CC)CC)N12 (centres undefined),T/C,"dose: 50.0 mg/kg/injection, schedule: Q01DX001 (ip), vehicle: Klucel (hydroxypropylcellulose) (HPC)",103 % of control
same,T/C,"dose: 100.0 mg/kg/injection, schedule: Q01DX001 (ip), vehicle: Klucel (hydroxypropylcellulose) (HPC)",104 % of control
same,T/C,"dose: 200.0 mg/kg/injection, schedule: Q01DX001 (ip), vehicle: Klucel (hydroxypropylcellulose) (HPC)",101 % of control
CCC1(c2ccccc2)C(C#N)C(=O)NC(=O)C1C#N (centres undefined),T/C,[4],106 % of control
same,T/C,[5],99 % of control
same,T/C,[6],101 % of control
COc1cc2c(cc1OC)C13CC[N+]4(C)CC5=CCOC6CC(=O)N2C1C6C5CC34[O-] (centres undefined),T/C,"dose: 60.0 mg/kg/injection, schedule: Q01DX005 (ip), vehicle: Klucel (hydroxypropylcellulose) (HPC)",99 % of control
same,T/C,"dose: 120.0 mg/kg/injection, schedule: Q01DX005 (ip), vehicle: Klucel (hydroxypropylcellulose) (HPC)",99 % of control
same,T/C,"dose: 240.0 mg/kg/injection, schedule: Q01DX005 (ip), vehicle: Klucel (hydroxypropylcellulose) (HPC)",111 % of control
COC(=O)/C(=C\C[C@@H]1CCCC[C@H]1O)CC[Se]c1ccccc1,T/C,"dose: 50.0 mg/kg/injection, schedule: Q01DX009 (ip), vehicle: distilled water + Tween-80 + alcohol",108 % of control
same,T/C,"dose: 100.0 mg/kg/injection, schedule: Q01DX009 (ip), vehicle: distilled water + Tween-80 + alcohol",103 % of control
same,T/C,"dose: 200.0 mg/kg/injection, schedule: Q01DX009 (ip), vehicle: distilled water + Tween-80 + alcohol",98 % of control
CS(=O)(=O)C(CCC(=O)C(c1ccccc1)c1ccccc1)C(=O)c1ccccc1 (centres undefined),T/C,[9],110 % of control
same,T/C,[10],109 % of control
same,T/C,[11],93 % of control
Clc1ccc(-n2nnc3cc(Cl)ccc32)c(Cl)c1,T/C,"dose: 6.25 mg/kg/injection, schedule: Q01DX005 (ip), vehicle: saline with Tween-80",86 % of control and 96 % of control
same,T/C,"dose: 12.5 mg/kg/injection, schedule: Q01DX005 (ip), vehicle: saline with Tween-80",94 % of control
same,T/C,"dose: 25.0 mg/kg/injection, schedule: Q01DX005 (ip), vehicle: saline with Tween-80",90 % of control and 91 % of control
same,T/C,[15],103 % of control
same,T/C,[16],97 % of control
same,T/C,[17],101 % of control
Cc1cc(C)nc(NS(=O)(=O)c2ccc(Nc3c4ccc(Cl)cc4nc4ncccc34)cc2)n1,T/C,[12],110 % of control
same,T/C,[13],106 % of control
same,T/C,[14],116 % of control
COC(=O)C1=C(C(=O)OC)C2C=CC1C1C(Br)C(Br)C21 (centres undefined),T/C,[7],100 % of control
same,T/C,[8],102 % of control
same,T/C,[18],100 % of control
CC(=O)OCC1OC(Nc2[nH]c(=O)nc3occc23)C(OC(C)=O)C(OC(C)=O)C1OC(C)=O (centres undefined),T/C,[1],107 % of control
same,T/C,[2],99 % of control
same,T/C,[3],97 % of control
CC(=O)Nc1cccc(/C(C)=N/NC(N)=O)c1,T/C,[12],91 % of control
same,T/C,[13],91 % of control
same,T/C,[14],89 % of control
CC1=CNC(=O)CC(C)(C)C1,T/C,[12],105 % of control
same,T/C,[13],105 % of control
same,T/C,[14],104 % of control
Cc1c(COC(=O)NC(C)C)c(COC(=O)NC(C)C)c2n1CSC2,T/C,"dose: 6.25 mg/kg/injection, schedule: Q01DX005 (ip), vehicle: Klucel + Tween-80",154 % of control
same,T/C,"dose: 25.0 mg/kg/injection, schedule: Q01DX005 (ip), vehicle: Klucel + Tween-80",169 % of control and 173 % of control
S=c1[nH]c(=S)c2[nH]cnc2[nH]1,T/C,[12],102 % of control
same,T/C,[13],100 % of control
same,T/C,[14],100 % of control
Cc1cc(C)c(C#N)c(Sc2nc(C)c([N+](=O)[O-])c(C)c2C#N)n1,T/C,[12],96 % of control
same,T/C,[13],100 % of control
same,T/C,[14],102 % of control
CC(=O)OC1CCC2(C)C(CCC3C2CCC2(C)C3CC(CC(=O)O)C2OC(C)=O)C1 (centres undefined),T/C,"dose: 25.0 mg/kg/injection, schedule: Q01DX009 (ip), vehicle: Klucel (hydroxypropylcellulose) (HPC)",92 % of control
same,T/C,[7],92 % of control
same,T/C,[8],93 % of control
same,T/C,[18],97 % of control
COc1cc2oc3c(c(=O)c2c(O)c1/C=C/C(C)C)C(C=C(C)C)Oc1cc(O)ccc1-3 (centres undefined),T/C,[7],124 % of control
same,T/C,[8],115 % of control
same,T/C,[18],114 % of control
COc1cc2c(cc1OC)-c1ccc(OC)c(=O)cc1CC(NC(=O)C(C)=O)C2 (centres undefined),T/C,"dose: 0.63 mg/kg/injection, schedule: Q01DX009 (ip), vehicle: Klucel (hydroxypropylcellulose) (HPC)",153 % of control
same,T/C,"dose: 1.25 mg/kg/injection, schedule: Q01DX009 (ip), vehicle: Klucel (hydroxypropylcellulose) (HPC)",105 % of control
same,T/C,"dose: 78.0 micrograms/kg/injection, schedule: Q01DX009 (ip), vehicle: Klucel (hydroxypropylcellulose) (HPC)",120 % of control
same,T/C,"dose: 625.0 micrograms/kg/injection, schedule: Q01DX009 (ip), vehicle: Klucel (hydroxypropylcellulose) (HPC)",151 % of control
CCc1nc2c(cnn2C)c(=O)n1-c1ccccc1,T/C,[9],101 % of control
same,T/C,[10],100 % of control
same,T/C,[11],96 % of control
OC1C=CC2C(CC1)C1(c3ccccc3)OC2(c2ccccc2)c2ccccc21 (centres undefined),T/C,[9],100 % of control
same,T/C,[10],98 % of control
same,T/C,[11],99 % of control
CCOP(=O)(OCC)C(=C(Cl)Cl)C(Cl)Cl,T/C,"dose: 12.5 mg/kg/injection, schedule: Q01DX009 (ip), vehicle: saline with Tween-80",100 % of control and 104 % of control
same,T/C,[15],105 % of control and 115 % of control
same,T/C,[16],113 % of control and 118 % of control and 124 % of control
same,T/C,[17],116 % of control
CC(C)(NC(=O)OCc1ccccc1)C(=O)n1cc(CC(C(=O)OCc2ccccc2)n2cnc3ccccc3c2=O)c2ccccc21 (centres undefined),T/C,"dose: 8.75 mg/kg/injection, schedule: Q01DX005 (ip), vehicle: Klucel (hydroxypropylcellulose) (HPC)",96 % of control
same,T/C,"dose: 17.5 mg/kg/injection, schedule: Q01DX005 (ip), vehicle: Klucel (hydroxypropylcellulose) (HPC)",100 % of control
same,T/C,"dose: 35.0 mg/kg/injection, schedule: Q01DX005 (ip), vehicle: Klucel (hydroxypropylcellulose) (HPC)",99 % of control

# From PubChem BioAssay AID330 (DTP/NCI, 2004)
